# Measured values as given in US8940909B2, “Indicator platform” (Biosynth AG, priority 2009, dated 2015).
# “Also recorded” adds a separate entry of the source.
# What was measured:
# [1] = Indication of disulfide reduction by TCEP
# Eschericha coli (NM1) = experiment: MDAB staining of bacterial colonies with indicators I9a, I10a, I11a, I12a on Nutrient Agar, aerobic; format: cell-based; details: for Effectiveness of indicator system with MDAB under aerobic conditions: in combination with MDAB; for colonial morphology, aerobic conditions: Escherichia coli (b-gal +), aR MDAB, equivalents 1:1, after 48 h of incubation
# Protocol: (§1) Indicators were tested with live cultures on Nutrient Agar plates. Nutrient Agar (5 g/l peptone, 5 g/l NaCl, 2 g/l yeast extract, 1 g/l beef extract, 13 g/l agar, pH 7.4) was autoclaved and allowed to cool to 50° C. Then substrates were added to final concentrations of 150 mg/l (from a 20 mg/ml stock solution in DMF). Optionally MDAB was added to a concentration of 1 mM (from a 200 mM stock solution in DMF) and plates were poured. Agar plates were inoculated with cultures of Eschericha coli (NM1) or Salmonella enteritidis (RKI 05/07992) (pre-grown on nutrient broth for 8-18 hours) and aerobically incubated at 37° C.
# [2] = test system: Salmonella enteritidis (RKI 05/07992); experiment: as above; format: cell-based; details: Salmonella enteritidis (b-gal −); aR MDAB, equivalents 1:1; after 48 h of incubation
# Protocol: as §1
# [3] = test system: beta-galactosidase negative Salmonella enteritidis (RKI 05/07992); format: cell-based; details: S. enteritidis (b-gal negative), 24 h, 150 mg/l substrate and 100 mg/l IPTG; for F: Fluorescence of colonies (strength): 366 nm UV; on all read-outs here: key: −: absent; +/−: weak; +: strong; ++: very strong
# Protocol: (§2) Nutrient Agar (5 g/l peptone, 5 g/l NaCl, 2 g/l yeast extract, 1 g/l beef extract, 13 g/l agar, pH 7.4) was autoclaved and allowed to cool to 50° C. Then indicators were added to final concentrations of 150 mg/l (from a 20 mg/ml stock solution in DMF).
# (§3) Optionally IPTG was added to 100 mg/l (from a 100 mg/ml stock solution in H2O) and plates were poured. Agar plates were inoculated with cultures of beta-galactosidase positive Eschericha coli (NM1) or beta-galactosidase negative Salmonella enteritidis (RKI 05/07992) (pre-grown on nutrient broth for 8-18 hours) and incubated at 37° C. Plates were inspected at 16, 20, 24 and 48 hours and pictures were recorded at 18, 24, and 48 hours with a Digistore 2 Image documentation system (CAMAG) under white light.
# (§4) A considerable number of indicators molecules (Table IVa, IVb) and a selection of labile groups (Table IVc) were tested with various microbial species producing different biomarker enzymes (external stimuli, eS). The color of stains ranges from yellow to red.
# (§5) Plating media from Example 10 were examined under 366 nm UV irradiation at 16, 20, 24 and 48 hours for fluorescence by means of Digistore 2 Image documentation system (CAMAG). Loops of bacterial cells, grown for 48 hours on Nutrient Agar plates containing 150 mg/l beta-D-galactosidase indicator and 100 mg/l IPTG, were directly streaked into wells of black clear bottom microtiter plates. Fluorescence scans were recorded on a Spectramax M5 (Molecular Devices).
# [4] = test system: beta-galactosidase positive Eschericha coli (NM1); experiment: IO staining of bacterial colonies on Nutrient Agar (color, fluorescence, localization, growth); on C: Color of colonies (strength): key: −: absent; +/−: weak; +: strong; ++: very strong; on F: Fluorescence of colonies (strength): key: −: absent; +/−: weak; +: strong; ++: very strong; on G: Growth of colonies: key: −: absent; +/−: weak; +: strong; ++: very strong; on L: Localization of stain on colonies: key: −: absent; +/−: weak; +: strong; ++: very strong; format: cell-based, E. coli; details: 150 mg/l substrate and 100 mg/l IPTG; for F: Fluorescence of colonies (colour) / G: Growth of colonies / L: Localization of stain on colonies / F: Fluorescence of colonies (strength): 24 h; for F: Fluorescence of colonies (colour) / F: Fluorescence of colonies (strength): 366 nm UV; for C: Color of colonies (colour of stain) / C: Color of colonies (strength): 24 h on Nutrient Agar; for G: Growth of colonies / L: Localization of stain on colonies / F: Fluorescence of colonies (strength) / C: Color of colonies (strength): E. coli
# Protocol: as §2, §3, §4, §5
# [5] = Indication of carbamate hydrolysis by alkali; details: short treatment with 1N aqueous NaOH solution
# pig liver esterase = experiment: Indication of carbamate hydrolysis by esterase; format: biochemical; details: prolonged exposure to pig liver esterase
# [6] = Water solubility and fluorescence of IO dyes from ester indicators; format: physicochemical; details: above pH 5
# Excerpt: Upon further acidification said dyes formed orange colored non-fluorescent precipitates from aqueous solutions. […] Evidently, said dyes are highly acidic in nature and highly fluorescent in deprotonated form.
# Saccharomyces cerevisiae = experiment: IO staining of fungal colonies; format: cell-based; details: Saccharomyces cerevisiae strain 306, galactosamidase −; agar plates containing indicator; on growth: key: −: absent; +/−: weak/variable; +: strong
# Protocol: (§6) Agar base (6 g/l soytone, 1.5 g/l yeast extract, 1 g/l glucose, 10 mM sodium phosphate buffer, 13 g/l agar, pH 7.0) was autoclaved and allowed to cool to 50° C. Then 1 mM MnSO4, 1 g/l N-Acetyl-D-galactosamine and: 1-(2-benzoylphenyl)-6-chloro-1H-indol-3-yl-N-acetyl-beta-D-galactosaminide (I21g) were added to final concentrations of 0.64 mM (from a 50 mM stock solution in DMF) and plates poured. Plates were inoculated with Candida albicans, Candida krusei and Saccharomyces cerevisiae and incubated at 37° C. for 48 hours.
# Candida krusei = experiment: IO staining of fungal colonies; format: cell-based; details: Candida krusei strain 305, galactosamidase −; agar plates containing indicator; on growth: key: −: absent; +/−: weak/variable; +: strong
# Protocol: as §6
# Candida albicans = experiment: IO staining of fungal colonies; format: cell-based; on growth: key: −: absent; +/−: weak/variable; +: strong
# Protocol: as §6
# [7] = Candida albicans strain 304, galactosamidase +, agar plates containing indicator
Structure (SMILES),Effectiveness of indicator system with MDAB under aerobic conditions (Eschericha coli (NM1)),"colonial morphology, aerobic conditions [2]",C: Color of colonies (strength) [3],F: Fluorescence of colonies (strength) [3],F: Fluorescence of colonies (colour) [4],C: Color of colonies (colour of stain) [4],G: Growth of colonies [4],L: Localization of stain on colonies [4],F: Fluorescence of colonies (strength) [4],C: Color of colonies (strength) [4],also measured
"CC(=O)c1ccccc1-n1cc(SSc2cn(-c3ccccc3C(C)=O)c3ccccc23)c2ccccc21 [Indicator I33, Bis[1-(2-acetylphenyl)-1H-indol-3-yl]-disulfane]",,,,,,,,,,,"Signal on disulfide reduction, alkaline conditions ([1]; alkaline conditions (1 N aqueous sodium hydroxide)): the solution turned yellow; Signal on disulfide reduction, neutral conditions ([1]; neutral conditions): no detectable signal"
"COC(=O)c1ccccc1-n1cc(O[C@@H]2O[C@H](CO)[C@H](O)[C@H](O)[C@H]2O)c2ccc(Cl)cc21 [Indicator I11a, 6-Chloro-1-[2-(methoxycarbonyl)phenyl]-1H-indol-3-yl-beta-D-galactopyranoside]",effective,Cream colored colonies,−,−,green,yellow-green,+,−,+,+,
"CCNC(=O)Oc1cn(-c2ccccc2C(=O)c2ccccc2)c2ccccc12 [Indicator I32, 1-(2-Benzoylphenyl)-1H-indol-3-yl ethyl carbamate]",,,,,,,,,,,Signal on alkaline carbamate hydrolysis [5]: yellow precipitate; Signal on carbamate hydrolysis by esterase (pig liver esterase): yellow precipitate
"COC(=O)c1ccccc1-n1cc(O[C@@H]2O[C@H](CO)[C@H](O)[C@H](O)[C@H]2O)c2ccccc21 [Indicator I10a, 1-[2-(Methoxycarbonyl)phenyl]-1H-indol-3-yl-beta-D-galactopyranoside]",effective,Cream colored colonies,−,−,green,yellow-green,+,−,+,+,
"O=C1c2ccccc2-n2c1c(O)c1ccccc12 [IO10, 11-Hydroxy-10H-indolo[1,2-a]indol-10-one]",,,,,,,,,,,Solubility in water [6]: freely soluble; also recorded: readily water-soluble
"COC(=O)c1ccccc1-n1cc(O[C@@H]2O[C@H](CO)[C@H](O)[C@H](O)[C@H]2O)c2c(Cl)c(Br)ccc21 [Indicator I12a, 5-Bromo-4-chloro-1-[2-(methoxycarbonyl)phenyl]-1H-indol-3-yl-beta-D-galactopyranoside]",effective,Cream colored colonies,−,−,green,yellow-green,+,−,+/−,+/−,"colonial morphology, aerobic conditions (Eschericha coli (NM1)): Brown colored colonies"
"OC[C@H]1O[C@@H](Oc2cn(-c3ccccc3)c3cc(Cl)ccc23)[C@H](O)[C@@H](O)[C@H]1O [Indicator I9a, 6-Chloro-1-phenyl-1H-indol-3-yl-beta-D-galactopyranoside]",effective,Cream colored colonies,,,,,,,,,"colonial morphology, aerobic conditions (Eschericha coli (NM1)): Red colored colonies"
"CC(=O)N[C@H]1[C@H](Oc2cn(-c3ccccc3C(=O)c3ccccc3)c3cc(Cl)ccc23)O[C@H](CO)[C@H](O)[C@@H]1O [Indicator I21g, 1-(2-Benzoylphenyl)-6-chloro-1H-indol-3-yl-N-acetyl-beta-D-galactosaminide]",,,,,,,,,,,Color (Saccharomyces cerevisiae): Cream; Growth (Saccharomyces cerevisiae): +/−; Color (Candida krusei): Cream; Growth (Candida krusei): +/−; Color (Candida albicans; [7]): Yellow; Growth (Candida albicans; [7]): +/−; Color of fungal colonies producing matching external stimulus (Candida albicans; D-galactosamidase biomarker of Candida albicans): bright yellow
